Results from patent US10458996B1, “Methods for determining clinical response to TNF-alpha and/or JAK inhibitors in subjects with inflammatory diseases” (Beth Israel Deaconess Medical Center, Inc., priority 2016, dated 2019).

Columns and labels:
[1] = system: patients with moderate-to-severe CD; details: week 24 of intervention; cited from earlier work
[2] = system: biopsy samples from patients with IBD; experiment: Cytokine profiles of patient biopsy cultures in response to treatment with various agents (Example 2); assay type: cell-based, human
Description: From each patient, intestinal mucosal biopsies were minced into several pieces and distributed in 8 wells of a 96-well plate in 250 μl of Dulbecco's Modified Eagle Medium (DMEM) supplemented with 10% FBS and antibiotic-antimycotic (Life Technologies, CA). Half of the cultures were treated with infliximab (REMICADE®; 0.5 mg/ml; Janssen Biotech, Inc, NJ) and the plate was incubated at 37° C. in a humidified chamber of 95% O2/5% CO2 for 18 hours. Culture supernatants were collected, filtered and stored at −80° C. […] Signal detection and analysis was performed by MAGPIX® (Luminex Corporation, TX).
[…] with 0.5 mg/ml infliximab (an anti-TNFα antibody; therapeutic agent), 100 μM tofacitinib (a Janus kinase (JAK) inhibitor) and an experimental drug (at 10 μM concentration) in accordance with the protocol described above. Following treatment, biopsy samples were obtained and analyzed for cytokine profiles using […].
Additional similar experiments were conducted for different patients using the same or different therapeutic agents, and the results are shown in FIG. 5D-5H.

Compound	Mucosal healing rates [1] [%]	cytokines with levels significantly elevated ([2]; 100 μM, non-responder group (FIG. 5B))	cytokines with attenuation in levels ([2]; 100 μM, non-responders (FIG. 5B))	cytokines with levels significantly attenuated ([2]; 100 μM, responders (FIG. 5B))	changes in cytokine profile ([2]; patient ID 13-394 (FIG. 5E))	ex vivo response of patient ([2]; patient ID 13-394 (FIG. 5E))
Cn1cnc([N+](=O)[O-])c1Sc1ncnc2nc[nH]c12 [azathioprine]	16.5	–	–	–	–	–
C[C@@H]1CCN(C(=O)CC#N)C[C@@H]1N(C)c1ncnc2[nH]ccc12 [tofacitinib]	–	IL-12p40, IL-12p70, IL-13, IL-17A, IL-2, IL-4, IL-5, and IL-7	MCP-1 and TNFα	IL-6, IL-8, MCP-1, and TNFα	three cytokine expression down-regulation	ex vivo responder
